# Laboratory results published in publication PMC10044120, “Potent and selective covalent inhibition of the papain-like protease from SARS-CoV-2” (Nature Communications, 2023).
# Like-named read-outs stand apart in the source and are kept apart here.
# Tests used:
# [1] = Metabolic stability in human liver S9 fraction
# PLpro from SARS-CoV-2 = PLpro from SARS-CoV-2 (Severe acute respiratory syndrome coronavirus 2, UniProt P0DTD1); test: biochemical; assay type: biochemical
smiles,measurement,setting,value
"C[C@@H](NC(=O)c1ccccc1CCC(=O)NNC(=O)CCl)c1cccc2ccccc12 [Compound 9, (R)-2-(3-(2-(2-chloroacetyl)hydrazineyl)-3-oxopropyl)-N-(1-(naphthalen-1-yl)ethyl)benzamide]",half-life,[1],3 min
same,microsomal CLint,[1],689 µL/min/mg
same,kinact/KI,PLpro from SARS-CoV-2,110 M⁻¹ s⁻¹
same,remaining activity at 1 µM,"PLpro from SARS-CoV-2; 5 min, read-out: PLpro activity after preincubation, inhibitor 1 uM, preincubation 5 min",103%
same,remaining activity at 4 µM,"PLpro from SARS-CoV-2; 5 min, read-out: PLpro activity after preincubation, inhibitor 4 uM, preincubation 5 min",97.6%
same,remaining activity at 5 µM,"PLpro from SARS-CoV-2; 5 min, read-out: PLpro activity after preincubation, inhibitor 5 uM, preincubation 5 min",92.9%
same,remaining activity at 10 µM,"PLpro from SARS-CoV-2; 5 min, read-out: PLpro activity after preincubation, inhibitor 10 uM, preincubation 5 min",78.5%
same,remaining activity at 15 µM,"PLpro from SARS-CoV-2; 5 min, read-out: PLpro activity after preincubation, inhibitor 15 uM, preincubation 5 min",66.8%
same,remaining activity at 25 µM,"PLpro from SARS-CoV-2; 5 min, read-out: PLpro activity after preincubation, inhibitor 25 uM, preincubation 5 min",57.8%
same,remaining activity at 30 µM,"PLpro from SARS-CoV-2; 5 min, read-out: PLpro activity after preincubation, inhibitor 30 uM, preincubation 5 min",62%
same,remaining activity at 36 µM,"PLpro from SARS-CoV-2; 5 min, read-out: PLpro activity after preincubation, inhibitor 36 uM, preincubation 5 min",57.3%
same,remaining activity at 1 µM,"PLpro from SARS-CoV-2; 10 min, read-out: PLpro activity after preincubation, inhibitor 1 uM, preincubation 10 min",103%
same,remaining activity at 2 µM,"PLpro from SARS-CoV-2; 10 min, read-out: PLpro activity after preincubation, inhibitor 2 uM, preincubation 10 min",93.2%
same,remaining activity at 5 µM,"PLpro from SARS-CoV-2; 10 min, read-out: PLpro activity after preincubation, inhibitor 5 uM, preincubation 10 min",74%
same,remaining activity at 10 µM,"PLpro from SARS-CoV-2; 10 min, read-out: PLpro activity after preincubation, inhibitor 10 uM, preincubation 10 min",53.4%
same,remaining activity at 15 µM,"PLpro from SARS-CoV-2; 10 min, read-out: PLpro activity after preincubation, inhibitor 15 uM, preincubation 10 min",47.4%
same,remaining activity at 25 µM,"PLpro from SARS-CoV-2; 10 min, read-out: PLpro activity after preincubation, inhibitor 25 uM, preincubation 10 min",38.1%
same,remaining activity at 30 µM,"PLpro from SARS-CoV-2; 10 min, read-out: PLpro activity after preincubation, inhibitor 30 uM, preincubation 10 min",42.9%
same,remaining activity at 36 µM,"PLpro from SARS-CoV-2; 10 min, read-out: PLpro activity after preincubation, inhibitor 36 uM, preincubation 10 min",38.6%
same,remaining activity at 2 µM,"PLpro from SARS-CoV-2; 20 min, read-out: PLpro activity after preincubation, inhibitor 2 uM, preincubation 20 min",77.2%
same,remaining activity at 8 µM,"PLpro from SARS-CoV-2; 20 min, read-out: PLpro activity after preincubation, inhibitor 8 uM, preincubation 20 min",39.6%
same,remaining activity at 1 µM,"PLpro from SARS-CoV-2; 0.5 h, read-out: PLpro activity after preincubation, inhibitor 1 uM, preincubation 30 min",83.9%
same,remaining activity at 2 µM,"PLpro from SARS-CoV-2; 0.5 h, read-out: PLpro activity after preincubation, inhibitor 2 uM, preincubation 30 min",68.5%
same,remaining activity at 4 µM,"PLpro from SARS-CoV-2; 0.5 h, read-out: PLpro activity after preincubation, inhibitor 4 uM, preincubation 30 min",44.8%
same,remaining activity at 5 µM,"PLpro from SARS-CoV-2; 0.5 h, read-out: PLpro activity after preincubation, inhibitor 5 uM, preincubation 30 min",40.6%
same,remaining activity at 8 µM,"PLpro from SARS-CoV-2; 0.5 h, read-out: PLpro activity after preincubation, inhibitor 8 uM, preincubation 30 min",30.9%
same,remaining activity at 10 µM,"PLpro from SARS-CoV-2; 0.5 h, read-out: PLpro activity after preincubation, inhibitor 10 uM, preincubation 30 min",31.6%
same,remaining activity at 15 µM,"PLpro from SARS-CoV-2; 0.5 h, read-out: PLpro activity after preincubation, inhibitor 15 uM, preincubation 30 min",12.2%
same,remaining activity at 25 µM,"PLpro from SARS-CoV-2; 0.5 h, read-out: PLpro activity after preincubation, inhibitor 25 uM, preincubation 30 min",10.3%
same,remaining activity at 30 µM,"PLpro from SARS-CoV-2; 0.5 h, read-out: PLpro activity after preincubation, inhibitor 30 uM, preincubation 30 min",13.7%
same,remaining activity at 36 µM,"PLpro from SARS-CoV-2; 0.5 h, read-out: PLpro activity after preincubation, inhibitor 36 uM, preincubation 30 min",12.5%
same,remaining activity at 1 µM,"PLpro from SARS-CoV-2; 1 h, read-out: PLpro activity after preincubation, inhibitor 1 uM, preincubation 60 min",68.1%
same,remaining activity at 2 µM,"PLpro from SARS-CoV-2; 1 h, read-out: PLpro activity after preincubation, inhibitor 2 uM, preincubation 60 min",42.3%
same,remaining activity at 4 µM,"PLpro from SARS-CoV-2; 1 h, read-out: PLpro activity after preincubation, inhibitor 4 uM, preincubation 60 min",21.8%
same,remaining activity at 5 µM,"PLpro from SARS-CoV-2; 1 h, read-out: PLpro activity after preincubation, inhibitor 5 uM, preincubation 60 min",16.1%
same,remaining activity at 8 µM,"PLpro from SARS-CoV-2; 1 h, read-out: PLpro activity after preincubation, inhibitor 8 uM, preincubation 60 min",10.3%
same,remaining activity at 15 µM,"PLpro from SARS-CoV-2; 1 h, read-out: PLpro activity after preincubation, inhibitor 15 uM, preincubation 60 min",7.87%
same,remaining activity at 25 µM,"PLpro from SARS-CoV-2; 1 h, read-out: PLpro activity after preincubation, inhibitor 25 uM, preincubation 60 min",12.5%
same,remaining activity at 2 µM,"PLpro from SARS-CoV-2; 85 min, read-out: PLpro activity after preincubation, inhibitor 2 uM, preincubation 85 min",29.8%
same,remaining activity at 2 µM,"PLpro from SARS-CoV-2; 110 min, read-out: PLpro activity after preincubation, inhibitor 2 uM, preincubation 110 min",18%
same,remaining activity at 1 µM,"PLpro from SARS-CoV-2; […], read-out: PLpro activity after preincubation, inhibitor 1 uM, preincubation 15 min",93.3%
same,remaining activity at 1 µM,"PLpro from SARS-CoV-2; […], read-out: PLpro activity after preincubation, inhibitor 1 uM, preincubation 45 min",79.9%
same,remaining activity at 1 µM,"PLpro from SARS-CoV-2; […], read-out: PLpro activity after preincubation, inhibitor 1 uM, preincubation 90 min",54%
same,remaining activity at 2 µM,"PLpro from SARS-CoV-2; […], read-out: PLpro activity after preincubation, inhibitor 2 uM, preincubation 45 min",56.1%
same,remaining activity at 4 µM,"PLpro from SARS-CoV-2; […], read-out: PLpro activity after preincubation, inhibitor 4 uM, preincubation 15 min",73.3%
same,remaining activity at 4 µM,"PLpro from SARS-CoV-2; […], read-out: PLpro activity after preincubation, inhibitor 4 uM, preincubation 45 min",30.6%
same,remaining activity at 4 µM,"PLpro from SARS-CoV-2; […], read-out: PLpro activity after preincubation, inhibitor 4 uM, preincubation 90 min",18.5%
same,remaining activity at 5 µM,"PLpro from SARS-CoV-2; […], read-out: PLpro activity after preincubation, inhibitor 5 uM, preincubation 15 min",57.4%
same,remaining activity at 5 µM,"PLpro from SARS-CoV-2; […], read-out: PLpro activity after preincubation, inhibitor 5 uM, preincubation 45 min",20.3%
